From patent US20040192697A1, “Pyrrolopyridine potassium channel openers” (priority 2002, published 2004)

Key:
[1] = system: Landrace pig bladder strips; experiment: In vitro functional model: field-stimulated bladder tissue strips; conditions: dose dependent over concentration range of 10^−9 to 10^−5 M; control agonist
Protocol: In vitro Functional Model
Compounds were evaluated for functional BK channel opening activity using tissue strips obtained from Landrace pig bladders. Landrace pig bladders were obtained from female Landrace pigs of 9-30 kg. Landrace pigs were euthanized with an intraperitoneal injection of pentobarbital solution, Somlethal®, J. A. Webster Inc., Sterling Mass. The entire bladder was removed and immediately placed into Krebs Ringer bicarbonate solution (composition, mM: NaCl, 120; NaHCO3, 20; dextrose, 11; KCl, 4.7; CaCl2, 2.5; MgSO4, 1.5; KH2PO4, 1.2; K2EDTA, 0.01, equilibrated with 5% CO2/95% O2 pH 7.4 at 37° C.). Propranolol (0.004 mM) was included in all of the assays to block β-adrenoceptors. The trigonal and dome portions were discarded. Strips 3-5 mm wide and 20 mm long were prepared from the remaining tissue cut in a circular fashion. The mucosal layer was removed. One end was fixed to a stationary glass rod and the other to a Grass FT03 transducer at a basal preload of 1.0 gram. Two parallel platinum electrodes were included in the stationary glass rod to provide field stimulation of 0.05 Hz, 0.5 milli-seconds at 20 volts. […] The maximal efficacy of each compound (expressed as % relative to P1075) is reported. […] Agonist potencies were also expressed as an index relative to P1075. The index was calculated by dividing the ED50 for P1075 by the ED50 for the test agonist in a given tissue. […]

SMILES	melting point [°C]	effect on stimulated twitch of bladder strips [1]
N#Cc1c(N2CCCCC2)[nH]c2cccnc12 [Example 18, 2-Piperidin-1-yl-1H-pyrrolo[3,2-b]pyridine-3-carbonitrile]	241 to 242	–
N#Cc1c(N2CCC[C@H]2CO)[nH]c2cccnc12 [Example 10, (S)-2-(2-Hydroxymethyl-pyrrolidin-1-yl)-1H-pyrrolo[3,2-b]pyridine-3-carbonitrile]	207 to 209	–
CCC(C)(C)N=C(NC#N)Nc1cccnc1 [Example P1075]	–	completely eliminated the stimulated twitch
